Data as given in patent US7741359B2, “Hydrogen sulfide derivatives of non-steroidal anti-inflammatory drugs” (Antibe Therapeutics Inc., priority 2006, dated 2010).
“Also recorded” adds a separate entry of the source.

Legend:
[1] = system: gastric prostaglandin E2 (PGE2) synthesis (COX-1 and/or COX-2); test: Gastric prostaglandin E2 (PGE2) synthesis in excised rat gastric tissue; format: in vivo; conditions: oral; doses equimolar to diclofenac 20 mg/kg; tissue taken 3 h after administration; FIG. 2
Procedure: Briefly, the tissue samples were minced with scissors for 30 min, then placed in 1 mL of sodium phosphate buffer (pH 7.4) and placed in a shaking water bath (37° C.) for 20 min.

COX-1 = target: T1, COX-1 (Rattus norvegicus, UniProt Q63921); test: Whole blood thromboxane B2 synthesis of treated rats (inhibition of COX-1); format: in vivo; conditions: for COX-1 activity (whole blood thromboxane B2 synthesis): oral 60 μmol/kg, FIG. 4
T1 construct: whole blood thromboxane synthesis, which occurs via COX-1; from tissue; host or cells: rat whole blood (ex vivo clotting after oral dosing)
T1 sequence (Q63921 27-602): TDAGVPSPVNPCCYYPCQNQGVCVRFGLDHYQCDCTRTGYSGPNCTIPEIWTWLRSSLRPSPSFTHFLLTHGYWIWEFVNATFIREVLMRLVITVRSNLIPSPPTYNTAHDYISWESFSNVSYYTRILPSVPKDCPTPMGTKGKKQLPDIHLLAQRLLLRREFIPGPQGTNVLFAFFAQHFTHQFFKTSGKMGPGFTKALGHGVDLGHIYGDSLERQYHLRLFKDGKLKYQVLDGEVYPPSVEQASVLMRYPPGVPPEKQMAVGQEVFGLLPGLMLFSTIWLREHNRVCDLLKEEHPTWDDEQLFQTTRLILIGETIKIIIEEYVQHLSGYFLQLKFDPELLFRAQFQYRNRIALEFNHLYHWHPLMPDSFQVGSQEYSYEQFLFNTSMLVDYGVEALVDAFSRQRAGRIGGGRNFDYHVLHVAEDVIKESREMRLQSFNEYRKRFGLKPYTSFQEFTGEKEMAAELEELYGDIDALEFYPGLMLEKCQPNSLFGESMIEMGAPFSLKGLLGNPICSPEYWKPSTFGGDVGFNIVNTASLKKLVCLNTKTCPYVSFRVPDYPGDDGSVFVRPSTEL
Procedure: Inhibition of COX-1 was also measured using the same rats. […] The samples were then centrifuged for 3 min at 9,000 g and the supernatant was frozen at −80° C. for subsequent measurement of thromboxane B2 concentrations using a specific ELISA.
Inhibition of COX-1 was also measured using the same rats, using the same method as described for FIG. 4. […]

COX-2 = target: T2, COX-2 (Rattus norvegicus, UniProt P35355); test: Rat airpouch assay, exudate PGE2 after zymosan (inhibition of COX-2 in vivo)
T2 construct: from tissue; host or cells: rat subcutaneous airpouch (in vivo, zymosan-induced inflammation)
T2 sequence (P35355 18-604): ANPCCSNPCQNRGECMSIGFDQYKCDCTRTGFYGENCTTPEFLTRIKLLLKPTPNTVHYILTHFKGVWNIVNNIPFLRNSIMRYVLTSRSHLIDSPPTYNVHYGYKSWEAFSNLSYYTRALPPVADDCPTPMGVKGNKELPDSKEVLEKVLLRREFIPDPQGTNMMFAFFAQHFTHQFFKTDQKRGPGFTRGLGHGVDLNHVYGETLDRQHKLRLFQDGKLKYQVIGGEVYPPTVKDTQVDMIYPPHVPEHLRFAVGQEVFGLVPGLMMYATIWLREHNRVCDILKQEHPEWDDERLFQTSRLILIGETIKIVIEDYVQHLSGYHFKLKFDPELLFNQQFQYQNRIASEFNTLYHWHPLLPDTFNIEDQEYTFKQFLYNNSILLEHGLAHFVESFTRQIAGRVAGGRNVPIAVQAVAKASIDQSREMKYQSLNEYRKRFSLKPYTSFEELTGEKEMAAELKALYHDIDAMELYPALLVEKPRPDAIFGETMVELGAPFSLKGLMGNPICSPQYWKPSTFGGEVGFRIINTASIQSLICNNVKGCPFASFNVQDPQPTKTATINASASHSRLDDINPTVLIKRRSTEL
Procedure: Briefly, a subcutaneous “pouch” is created by repeated injections of air over several days. Once established, inflammation in the pouch can be induced by injection of 1 mL of 1% zymosan. […] Another group of 5 rats was treated with the vehicle, but received an injection of 0.9% sterile saline into the pouch rather than zymosan. […]
Each group consisted of 5 rats.

[2] = Incidence of gastric damage at the end of the leukocyte adherence experiment; conditions: for Percent Incidence of Gastric Damage: end of experiment
Procedure: Briefly, post-capillary mesenteric venules in anesthetized rats are examined under a light microscope. […] All test compounds were prepared in a vehicle of 1% carboxymethylcellulose. Changes in leukocyte adherence within the venule were recorded with a video camera attached to the microscope, and quantification of the numbers of adherent leukocytes was performed in a blind manner through evaluation of the videotaped images. Each group consisted of 5 male, Wistar rats weighing 150-175 g. A leukocyte was considered “adherent” if it remained stationary for 30 seconds or more (results below are expressed as the mean ± SEM). At the end of the experiment the stomach was opened and examined for the presence of gastric damage, under a dissecting microscope.

[3] = system: leukocyte adherence to the vascular endothelium; test: Leukocyte adherence to the vascular endothelium, intravital microscopy of mesenteric venules; conditions: for Number of Adherent Leukocytes: mean ± SEM
Procedure: Briefly, post-capillary mesenteric venules in anesthetized rats are examined under a light microscope. […] All test compounds were prepared in a vehicle of 1% carboxymethylcellulose. Changes in leukocyte adherence within the venule were recorded with a video camera attached to the microscope, and quantification of the numbers of adherent leukocytes was performed in a blind manner through evaluation of the videotaped images. Each group consisted of 5 male, Wistar rats weighing 150-175 g. A leukocyte was considered “adherent” if it remained stationary for 30 seconds or more (results below are expressed as the mean ± SEM).

[4] = Gastric damage (gastric damage score) in rats after oral dosing; conditions: for gastric damage: oral 60 μmol/kg, evaluated 3 hours later, FIG. 3
[5] = Carrageenan hindpaw edema model; format: in vivo, rat; conditions: oral, dose equimolar to diclofenac at 3 mg/kg, 30 min prior to carrageenan, compared with diclofenac, FIGS. 9, 10
Procedure: Male, Wistar rats weighing 175-200 g were given the test compounds orally 30 min prior to subplantar injection of 100 ul of 1% lambda carrageenan. Paw volume measured using an Ugo Basile hydroplethysmometer prior to carrageenan injection and at 1-h intervals thereafter for 5 h.

[6] = Healing of acetic acid-induced gastric ulcers; format: in vivo, rat; conditions: starting 3 days after ulcer induction, FIG. 13
Procedure: Gastric ulcers were induced via serosal application of acetic acid, as described by Elliott et al., A nitric oxide-releasing nonsteroidal anti-inflammatory drug accelerates gastric ulcer healing in rats. Gastroenterology 1995; 109: 524-530. […] After 4 days of such treatment, the rats were euthanized and the stomach was excised and photographed. The area (in mm^2) of the ulcer was determined planimetrically by an individual unaware of the treatments given to the rats. In a subgroup of 5 rats euthanized 3 days after induction of gastric ulcers (i.e., prior to initiation of drug treatment), the mean surface area of the ulcers was 24±2 mm^2.

[7] = 60 μmol/kg twice-daily orally for 4 days

SMILES: Oc1ccc(-c2cc(=S)ss2)cc1 [ADT-OH, 5-p-hydroxyphenyl-1,2-dithiole-3-thione, reference compound]
- gastric PGE2 synthesis [1]: did not reduce gastric PGE2 synthesis when compared to vehicle
- COX-1 activity (whole blood thromboxane synthesis) (COX-1; hydrogen sulfide releasing moieties alone, dose not given, FIG. 8): neither of the hydrogen sulfide releasing moieties (ADT-OH and TBZ) significantly affected COX-1 activity
- COX-2 activity (exudate PGE2) (COX-2; hydrogen sulfide releasing moieties alone, dose not given): neither of the hydrogen sulfide releasing moieties (ADT-OH and TBZ) significantly affected COX-2 activity

SMILES: CC(=O)Oc1ccccc1C(=O)Oc1ccc(-c2cc(=S)ss2)cc1 [Compound I, 4-(5-thioxo-5H-1,2-dithiol-3-yl)phenyl 2-acetoxybenzoate]
- percent incidence of gastric damage compared to the parent NSAID alone ([2]; intragastric 30 μmol/kg): significantly reduced the percent incidence of gastric damage when compared to aspirin alone
- Percent Incidence of Gastric Damage ([2]; intragastric 30 μmol/kg): 20%
- number of adherent leukocytes compared to the parent NSAID alone ([3]; intragastric 30 μmol/kg): significantly reduced the number of adherent leukocytes per 100 μm vessel length when compared to aspirin alone
- Number of Adherent Leukocytes ([3]; intragastric 30 μmol/kg): 2.5 ± 0.3 per 100 μm vessel length

SMILES: O=C(Cc1ccccc1Nc1c(F)cccc1Cl)Oc1ccc(-c2cc(=S)ss2)cc1 [Compound III, [2-(2-chloro-6-fluorophenylamino)-phenyl]-acetic acid 4-(5-thioxo-5H-[1,2]dithiol-3-yl)-phenyl ester]
- percent incidence of gastric damage compared to the parent NSAID alone ([2]; intragastric 30 μmol/kg): still showed no incidences of gastric damage
- Percent Incidence of Gastric Damage ([2]; intragastric 30 μmol/kg): 0%
- number of adherent leukocytes compared to the parent NSAID alone ([3]; intragastric 30 μmol/kg): significantly reduced the number of adherent leukocytes per 100 μm vessel length when compared to lumiracoxib alone
- Number of Adherent Leukocytes ([3]; intragastric 30 μmol/kg): 1.7 ± 0.3 per 100 μm vessel length

SMILES: COc1ccc2cc(C(C)C(=O)Oc3ccc(-c4cc(=S)ss4)cc3)ccc2c1 (stereo not drawn) [Compound V, 2-(6-Methoxy-naphthale-2-yl)-propionic acid 4-(5-thioxo-5-H-[1,2]dithiol-3-yl)-phenyl ester]
- COX-1 activity (whole blood thromboxane B2 synthesis) (COX-1): significantly (*p<0.05) inhibited COX-1 activity as compared to the vehicle-treated group; also recorded: somewhat less with Compound V than with naproxen or Compound XX
- COX-2 activity (exudate PGE2) (COX-2; 60 μmol/kg, FIG. 11): significantly suppressed COX-2 activity as compared to the group treated with vehicle
- gastric damage [4]: not detectable; also recorded: elicited significantly less damage than naproxen itself
- percent incidence of gastric damage compared to the parent NSAID alone ([2]; intragastric 60 μmol/kg): significantly reduced the percent incidence of gastric damage when compared to naproxen alone
- Percent Incidence of Gastric Damage ([2]; intragastric 60 μmol/kg): 0%
- number of adherent leukocytes compared to the parent NSAID alone ([3]; intragastric 60 μmol/kg): significantly reduced the number of adherent leukocytes per 100 μm vessel length
- Number of Adherent Leukocytes ([3]; intragastric 60 μmol/kg): 3.5 ± 0.7 per 100 μm vessel length

SMILES: CC(=O)Oc1ccccc1C(=O)Oc1ccc(C(N)=S)cc1 [Compound XVI, 2-Acetoxy-benzoic acid 4-thiocarbamoyl-phenyl ester]
- percent incidence of gastric damage compared to the parent NSAID alone ([2]; intragastric 30 μmol/kg): significantly reduced the percent incidence of gastric damage when compared to aspirin alone
- Percent Incidence of Gastric Damage ([2]; intragastric 30 μmol/kg): 0%
- number of adherent leukocytes compared to the parent NSAID alone ([3]; intragastric 30 μmol/kg): significantly reduced the number of adherent leukocytes per 100 μm vessel length when compared to aspirin alone
- Number of Adherent Leukocytes ([3]; intragastric 30 μmol/kg): 2.3 ± 0.3 per 100 μm vessel length

SMILES: NC(=S)c1ccc(OC(=O)Cc2ccccc2Nc2c(Cl)cccc2Cl)cc1 [Compound XVII, [2-(2,6-dichloro-phenylamino)-phenyl]-acetic acid 4-thiocarbamoyl-phenyl ester]
- inhibition at 4.1 mg/kg (COX-1; rat, po, read-out: inhibition of whole blood thromboxane synthesis (COX-1)): > 80%
- paw edema (paw volume increase) [5]: reduced paw edema to a greater extent
- paw edema (paw volume increase) ([5]; 3 mg/kg): comparable to the effect of diclofenac at a dose of 10 mg/kg
- gastric ulcer healing (ulcer area) ([6]; 30 μmol/kg twice-daily orally for 4 days): exhibited significantly greater healing
- gastric damage score ([4]; rats fasted 18 h, oral, doses equimolar to diclofenac 20 mg/kg, 3 h after administration, FIG. 1): no gastric damage was seen; also recorded: elicited significantly less gastric damage than diclofenac
- percent incidence of gastric damage compared to the parent NSAID alone ([2]; intragastric 30 μmol/kg): significantly reduced the percent incidence of gastric damage when compared to diclofenac alone
- Percent Incidence of Gastric Damage ([2]; intragastric 30 μmol/kg): 20%
- number of adherent leukocytes compared to the parent NSAID alone ([3]; intragastric 30 μmol/kg): significantly reduced the number of adherent leukocytes per 100 μm vessel length
- Number of Adherent Leukocytes ([3]; intragastric 30 μmol/kg): 2.8 ± 0.5 per 100 μm vessel length

SMILES: Cc1ccc(Nc2c(F)cccc2Cl)c(CC(=O)Oc2ccc(C(N)=S)cc2)c1 [Compound XVIII, 4-thiocarbamoylphenyl 2-(2-(2-chloro-6-fluorophenylamino)-5-methylphenyl)acetate]
- percent incidence of gastric damage compared to the parent NSAID alone ([2]; intragastric 30 μmol/kg): still showed no incidences of gastric damage
- Percent Incidence of Gastric Damage ([2]; intragastric 30 μmol/kg): 0%
- number of adherent leukocytes compared to the parent NSAID alone ([3]; intragastric 30 μmol/kg): significantly reduced the number of adherent leukocytes per 100 μm vessel length when compared to lumiracoxib alone
- Number of Adherent Leukocytes ([3]; intragastric 30 μmol/kg): 2.3 ± 0.4 per 100 μm vessel length

SMILES: COc1ccc2cc(C(C)C(=O)Oc3ccc(C(N)=S)cc3)ccc2c1 (stereo not drawn) [Compound XX, 2-(6-Methoxy-naphthalen-2-yl)-propionic acid 4-thiocarbamyl-phenyl ester]
- COX-1 activity (whole blood thromboxane B2 synthesis) (COX-1): significantly (*p<0.05) inhibited COX-1 activity as compared to the vehicle-treated group; also recorded: significantly better at inhibiting thromboxane B2 synthesis than the ADT-OH equivalent, Compound V
- gastric ulcer healing (ulcer area) [6, 7]: exhibited significantly greater healing
- gastric damage [4]: not detectable; also recorded: elicited significantly less damage than naproxen itself

SMILES: COc1ccc2cc([C@H](C)C(=O)O)ccc2c1 [Naproxen, naproxen, reference compound]
- COX-2 activity (exudate PGE2) (COX-2; 60 μmol/kg, FIG. 11): significantly suppressed COX-2 activity as compared to the group treated with vehicle
- gastric ulcer healing (ulcer area) [6, 7]: exhibited similar degrees of healing
- Percent Incidence of Gastric Damage ([2]; intragastric 60 μmol/kg): 100%
- Number of Adherent Leukocytes ([3]; intragastric 60 μmol/kg): 10.2 ± 0.4 per 100 μm vessel length
